In patent US10202349B2, “Asymmetric bis-acridines with antitumour activity and their uses” (POLITECHNIKA GDAŃSKA, priority 2015, dated 2019):

Key:
AsPC-1 = experiment: Cytotoxic activity in vitro, SRB; assay type: cell-based, human
Protocol: (§1) Cytotoxic activity tests in-vitro. A measure of the cytotoxic activity of bis-acridines are the EC50 (concentration of studied compounds at which 50% inhibition of proliferation of tumorous is observed) of the evaluated compounds that inhibit the growth of 50% of cells in relation to a control. The cytotoxic activity of the compounds was determined using SRB, recommended by the US National Cancer Institute (USA). As the spectrum of 13 human origin neoplasms in bis-acridine screening studies, we used the following: HT 29 [CRC], HCT 116 [CRC], H 460 [lung cancer], MDA MB 231 [breast cancer], MCF-7 [breast cancer], UM UC3 [bladder cancer], PC 3 [prostate cancer], DU 145 [ prostate cancer], Panc-1 [pancreatic cancer], Mia Pa Ca 2 [pancreatic cancer], BXPC 3 [pancreatic cancer], AsPC1 [pancreatic cancer], Capan-2 [pancreatic cancer]. […] The DU-145 results were substantially a basis for selecting compounds and neoplasms for screening. The next neoplasms most sensitive to the cytotoxic activity of bis-acridines was the CRC HCT-116, as well as breast cancer MBA-MB-231. […] The cytotoxic activity of the remaining bis-acridines is significant or high (EC50 in the range from 1 to 0.04 μM). […] Panc-1, MiaPaCa-2 and Capan-2 are more sensitive, whereas for AsPC-1 and BxPC-3 this activity is at least an order of magnitude smaller.

DU-145 = experiment: Cytotoxic activity in vitro, SRB; assay type: cell-based, human
Protocol: as §1

H-460 = experiment: Cytotoxic activity in vitro, SRB; assay type: cell-based, human
Protocol: as §1

HCT-116 = experiment: Cytotoxic activity in vitro, SRB; assay type: cell-based, human
Protocol: as §1

HT-29 = experiment: Cytotoxic activity in vitro, SRB; assay type: cell-based, human
Protocol: as §1

MCF-7 = experiment: Cytotoxic activity in vitro, SRB; assay type: cell-based, human
Protocol: as §1

MDA-MB-231 = experiment: Cytotoxic activity in vitro, SRB; assay type: cell-based, human
Protocol: as §1

MiaPaCa-2 = experiment: Cytotoxic activity in vitro, SRB; assay type: cell-based, human
Protocol: as §1

PANC-1 = experiment: Cytotoxic activity in vitro, SRB; assay type: cell-based, human
Protocol: as §1

PC-3 = experiment: Cytotoxic activity in vitro, SRB; assay type: cell-based, human
Protocol: as §1

UM-UC-3 = experiment: Cytotoxic activity in vitro, SRB; assay type: cell-based, human
Protocol: as §1

DU 145 = experiment: Anti-neoplasmic activity against xenograft in hairless mice; assay type: in vivo; conditions: single 2 mg/kg
Protocol: (§2) For this, we selected 26 bis-acridines, mainly on the basis of the cytotoxic activity. We performed 34 series of experiments evaluating the anti-neoplasmic activity on xenografts in hairless mice against eleven neoplasms of human origin from the determination of the cytotoxic activity of bis-acridines (table 4). The tumours were injected subcutaneously to hairless mice of 5-weeks, female Crl:Nu-Foxnlnu, at a rate of 5×10^6 cells per mouse. After attaining a tumour of about 100 mm^3 or 200 mm^3 in depending on the neoplasm and its take this was 8 or even 30 days, and began therapy. On the day therapy was initiated, we randomised the animals and divided them into groups. Test groups were from 6 to 8 animals, and controls had from 8 to 14 animals. Each compound was tested at three differentiated doses.
(§3) The preparations were administered intravenously (i.v.) twice weekly for 4 weeks (thrice weekly for rapidly growing neoplasms). In several series, we used intraperitoneally (i.p.) administration in the same scheme. […] The therapeutic efficacy of the tested formulations was evaluated by measuring tumour size (length and width measurements of the tumour on the basis of the calculated tumour volume). Tumours were measured twice weekly for a period of about 30 days for fast-growing neoplasms, as well as about 60 days for the slow-growing neoplasms. The tumour volume in the treated groups compared with the control group. On this basis, inhibition of tumour growth was calculated using the following formula: Tumour growth inhibition TGI [%]=100−(ΔVT/ΔVC×100) Where ΔVT—is mean the tumour volume in animals in the group treated at the given day of treatment, minus the mean tumour volume in animals at the date of commencement of therapy. ΔVC is mean tumour volume in animals in the control group on a given day of treatment minus the average tumour volume of animals on the date of commencement of therapy. The results of the tests of anti-neoplasmic activity conducted in xenografts of human-origin neoplasms in mice are shown in Table 5.
(§4) The result above was accepted only in the case that the dose administered in all animals or more than half of the animals that survived to the end of the experiment. In addition, the evaluation was the day that the administration of the preparation was already completed: for the fast-growing neoplasms (eg. HCT116) this was in the days from 15 to 26, while for slow-growing neoplasms (eg. Panc 1) on a day from 34 to 60. […] In addition, the maximum inhibition of neoplasms could be identified in the day, in which there were no factors that could change the value TGI value.
(§5) Such factors may include: a significant decrease in body weight, the appearance of observable toxaemia, excessive rate of tumour growth: tumours in excess of 2000 mm^3 and all animals alive on that day.

HCT 116 = experiment: as above; assay type: in vivo
Protocol: as §2, §3, §4, §5

PC 3 = experiment: as above; assay type: in vivo; conditions: series 15, i.p., single 2 mg/kg, total 12 mg/kg, day 39
Protocol: as §2, §3, §4, §5

BxPC-3 = experiment: Cytotoxic activity in vitro, SRB; assay type: cell-based, human
Protocol: as §1

Capan-2 = experiment: Cytotoxic activity in vitro, SRB; assay type: cell-based, human
Protocol: as §1

MDA MB 231 = experiment: Anti-neoplasmic activity against xenograft in hairless mice; assay type: in vivo
Protocol: as §2, §3, §4, §5

PANC 1 = experiment: as above; assay type: in vivo
Protocol: as §2, §3, §4, §5

AsPC 1 = experiment: as above; assay type: in vivo; conditions: series 23, i.p., single 2 mg/kg, total 16 mg/kg, day 39
Protocol: as §2, §3, §4, §5

BXPC 3 = experiment: as above; assay type: in vivo; conditions: single 2 mg/kg, total 16 mg/kg
Protocol: as §2, §3, §4, §5

Mia Pa Ca 2 = experiment: as above; assay type: in vivo; conditions: series 28, i.v., single 6 mg/kg, total 12 mg/kg, day 15, *at least half of animals did not survive
Protocol: as §2, §3, §4, §5

SMILES	EC50 (AsPC-1) [nM]	EC50 (DU-145) [nM]	EC50 (H-460) [nM]	EC50 (HCT-116) [nM]	EC50 (HT-29) [nM]	EC50 (MCF-7) [nM]	EC50 (MDA-MB-231) [nM]	EC50 (MiaPaCa-2) [nM]	EC50 (PANC-1) [nM]	EC50 (PC-3) [nM]	EC50 (UM-UC-3) [nM]	EC50 (BxPC-3) [nM]	EC50 (Capan-2) [nM]	other results
CN(CCCNc1c2ccccc2nc2cccc([N+](=O)[O-])c12)CCCNc1ccc([N+](=O)[O-])c2[nH]c3ccc(O)cc3c(=O)c12 [C-1906, 9-{N-[(7-hydroxy-4-nitro-9(10H)acridono-1-yl)aminopropyl]-N-methylaminopropylamino}-1′-nitroacridone]	135	43	14	15	22	74	20	24	32	52	14	–	–	TGI [%] [100 − (ΔVT/ΔVC × 100] (DU 145; series 1, i.p., total 6 mg/kg, day 35, *at least half of animals did not survive): 60* %; TGI [%] [100 − (ΔVT/ΔVC × 100] (HCT 116; series 9, i.v., single 1 mg/kg, total 5 mg/kg, day 16, *at least half of animals did not survive): 32* %; TGI [%] [100 − (ΔVT/ΔVC × 100] (PC 3): 52%
Cc1ccc([N+](=O)[O-])c2c(NCCCN3CCN(CCCNc4ccc5ncn6c7ccc(O)cc7c(=O)c4c56)CC3)c3ccccc3nc12 [C-2025, 1-[3-(8-hydroxy-imidazo[4,5,1-de]-acridin-6-on-5-yl)aminopropyl]-4-[3′-(4′-methyl-1′-nitroacridin-1-yl)-aminopropyl]piperazine]	343	67	74	51	237	244	17	38	42	130	35	354	68	TGI [%] [100 − (ΔVT/ΔVC × 100] (HCT 116; series 7, i.v., single 20 mg/kg, total 120 mg/kg, day 15): 4%; TGI [%] [100 − (ΔVT/ΔVC × 100] (MDA MB 231; series 19, i.v., single 5 mg/kg, total 40 mg/kg, day 39): 12%; TGI [%] [100 − (ΔVT/ΔVC × 100] (PANC 1; series 20, i.v., single 20 mg/kg, total 160 mg/kg, day 26, *at least half of animals did not survive): 61* %
O=c1c2ccccc2n2cnc3ccc(NCCCN4CCN(CCCNc5c6ccccc6nc6cccc([N+](=O)[O-])c56)CC4)c1c32 [C-2041, 1-[3-(imidazo[4,5,1-de]-acridin-6-on-5-yl)aminopropyl]-4-[3′-(1′-nitroacridin-1-yl)-aminopropyl]piperazine]	69	22	–	25	–	82	21	39	24	–	–	54	32	TGI [%] [100 − (ΔVT/ΔVC × 100] (AsPC 1): 29%; TGI [%] [100 − (ΔVT/ΔVC × 100] (BXPC 3; series 21, i.v., day 44): 81%; TGI [%] [100 − (ΔVT/ΔVC × 100] (BXPC 3; series 33, i.v., day 32): 48%; TGI [%] [100 − (ΔVT/ΔVC × 100] (DU 145; series 18, i.v., total 16 mg/kg, day 33): 61%; TGI [%] [100 − (ΔVT/ΔVC × 100] (MDA MB 231; series 34, i.v., single 4 mg/kg, total 32 mg/kg, day 32): 53%; TGI [%] [100 − (ΔVT/ΔVC × 100] (Mia Pa Ca 2): 38* %; TGI [%] [100 − (ΔVT/ΔVC × 100] (PANC 1; series 17, i.v., single 2 mg/kg, total 16 mg/kg, day 60): 76%; TGI [%] [100 − (ΔVT/ΔVC × 100] (PANC 1; series 27, i.v., single 2 mg/kg, total 16 mg/kg, day 33): 83%; TGI [%] [100 − (ΔVT/ΔVC × 100] (PANC 1; series 32, i.v., single 1 mg/kg, total 16 mg/kg, day 33): 82%
